Assays:
[1] = test system: U251MG, which is a human malignant glioma cell; test: Cytotoxicity when light is not irradiated (WST-1, dark room condition); assay type: cell-based; conditions: 10 μM or less, 2 h treatment, 24 h additional culture
Protocol: In order to evaluate cytotoxicity, U251MG, which is a human malignant glioma cell, was obtained from American Type Culture Collection (ATCC, Manassas, Va., USA). The obtained cell was cultured in a Dulbecco's Modified Eagle's Medium including the nutrient mixture F-12, 10% fetal bovine serum, an antibiotic (penicillin (100 I.U./mL), and streptomycin (100 μg/mL)), and the 0.1 mM MEM non-essential amino acid solution under conditions of 37° C. and 5% carbon dioxide. 5×10^4 cell/well of the cultured cells were dispensed into a 24-well plate, and DMEM/F12 medium (1 mL) was injected four times for each sample. The medium was removed 24 hours after culture, and media respectively including nanopreparations prepared in Example 1 and Comparative Examples 2 and 3 in concentrations of 1.0, 2.5, 5.0, and 10 μM were injected. In this case, the volume of the nanopreparations included in the injected medium was set not to exceed 1.0% of the total volume of the medium. […] Then, absorbance of the culture medium was measured at the wavelength of 450 nm by using an absorbance microplate reader. In this case, the aforementioned whole procedure was performed at a dark room condition, and cell viability was derived from the measured normalized absorbance.

[2] = test system: U251MG, which is a human malignant glioma cell; test: Light induced cytotoxicity by light irradiation (590 to 605 nm, 0.1 J/cm^2); assay type: cell-based; conditions: light 590 to 605 nm, 5 mW/cm^2, 0.1 J/cm^2, 12 hours culture
Protocol: 1×10^4 cell/well of U251MG, which is a human malignant glioma cell, were dispensed into a 96-well plate, and a DMEM/F12 medium (100 μL) was injected four times for each sample. 24 hours after culture, the medium was replaced with media respectively including the nanopreparations prepared in Example 1 and Comparative Examples 2 and 3 (sample treatment group) and a medium without the nanopreparation (non-treatment group). The samples were cultured at the dark room condition for 2 hours, washed with phosphate buffered saline (PBS). Then, media was replaced again with media without the nanopreparation. Subsequently, 5 mW/cm^2 of lighting power of light (590 to 605 nm) was irradiated through a light irradiation system (LIS) so that total energy applied to each cell is adjusted to 0.1 J/cm^2 to perform photodynamic diagnosis (photodynamic therapy). Each cell was cultured for 12 hours at the light irradiation condition. The cultured cell was subjected to the same method as Experimental Example 3 to measure light-cytotoxicity. Light induced cytotoxicity and light induced cytotoxicity efficiency were derived from the measured values by using Equations 1 and 2.

## Cc1cc(O)c2c(=O)c3c(O)cc(O)c4c5c(O)cc(O)c6c(=O)c7c(O)cc(C)c8c1c2c(c34)c(c78)c65 [Comparative Example 2, Hypericin]
[1]
  toxicity to cells when light is not irradiated: do not have toxicity to cells
[2]
  light toxicity (light induced cytotoxicity efficiency): 1.00±0.04 % mg/A.U. mL

Source: patent US9393308B2, “Micelle structure of nano preparation for diagnosis or treatment of cancer disease and preparation method thereof” (KOREA ADVANCED INSTITUTE OF SCIENCE AND TECHNOLOGY, priority 2013, dated 2016)
